# Key:
# Cochliobolus miyabeanus = experiment: In vivo protective test on Cochliobolus miyabeanus (rice); conditions: evaluated 4 days after inoculation; for Efficacy (protection): protective, 10 ppm of active ingredient (lowest of 250, 100, 50 and 10 ppm)
# [1] = tested on: Blumeria graminis f.sp. hordei; experiment: In vivo preventive test on Blumeria graminis (barley); conditions: 500 ppm of active ingredient, evaluated 7 days after inoculation
# Excerpt: (§1) To test for preventive activity, young plants are sprayed with the preparation of active compound or active compound combination at the stated rate of application.
# Pyrenophora teres = experiment: In vivo preventive test on Pyrenophora teres (barley); conditions: 500 ppm of active ingredient, evaluated 7-9 days after inoculation
# Excerpt: One day after this treatment, the plants are inoculated with an aqueous spore suspension of Pyrenophora teres.
# Fusarium graminearum = experiment: microbe, parasite or virus in culture; assay type: cell-based; conditions: for inhibition at 50 µM: Fusarium graminearum, 168 h, read-out: % Inhibition of fungal growth at 50 μM
# Septoria tritici = experiment: In vivo preventive test on Septoria tritici (wheat); conditions: 500 ppm of active ingredient, evaluated 21 days after inoculation
# Excerpt: as §1
# Leptosphaeria nodorum = experiment: In vivo preventive test on Leptosphaeria nodorum (wheat); conditions: 500 ppm of active ingredient, evaluated 7-9 days after inoculation
# Excerpt: One day after this treatment, the plants are inoculated with an aqueous spore suspension of Leptosphaeria nodorum.
# [2] = logP by HPLC on reversed-phase column (C 18), EEC Directive 79/831 Annex V.A8; assay type: physicochemical
# Description: In table 1, the logP values were determined in accordance with EEC Directive 79/831 Annex V.A8 by HPLC (High Performance Liquid Chromatography) on a reversed-phase column (C 18), using the method described below: Temperature: 40° C.; […]
# aflatoxines production = experiment: microbe, parasite or virus in culture; assay type: cell-based, Aspergillus parasiticus; conditions: for inhibition at 50 µM: Aspergillus parasiticus, 168 h, read-out: % Inhibition of Aflatoxin at 50 μM
# [3] = tested on: Fusarium nivale (var. majus); experiment: In vivo curative test on Fusarium nivale (wheat); conditions: 500 ppm of active ingredient, evaluated 5 days after inoculation
# Alternaria solani = experiment: In vivo preventive test on Alternaria solani (tomato); conditions: 500 ppm of active ingredient, evaluated 7 days after inoculation
# Excerpt: One day after this treatment, the plants are inoculated with an aqueous spore suspension of Alternaria solani.
# Uromyces appendiculatus = experiment: In vivo preventive test on Uromyces appendiculatus (beans); conditions: 100 ppm of active ingredient, evaluated 10 days after inoculation
# [4] = tested on: Fusarium nivale (var. majus); experiment: In vivo preventive test on Fusarium nivale (wheat); conditions: 500 ppm of active ingredient, evaluated 5 days after inoculation
# Excerpt: as §1
# Botrytis cinerea = experiment: In vivo preventive test on Botrytis cinerea (beans); conditions: preventive, beans, lesion size 2 days after inoculation; for Efficacy / pest or weed control at 100 ppm: 100 ppm of active ingredient
# Excerpt: To test for preventive activity, young plants are sprayed with the preparation of active compound. After the spray coating has dried on, 2 small pieces of agar covered with growth of Botrytis cinerea are placed on each leaf.
# Sphaerotheca fuliginea = experiment: In vivo preventive test on Sphaerotheca fuliginea (cucumber); conditions: 500 ppm of active ingredient, evaluated 7 days after inoculation
# Excerpt: One day after this treatment, the plants are inoculated with an aqueous spore suspension of Sphaerotheca fuliginea.
# Venturia inaequalis = experiment: In vivo preventive test on Venturia inaequalis (apple scab); conditions: 100 ppm of active ingredient, evaluated 10 days after inoculation
# Puccinia triticina = experiment: In vivo preventive test on Puccinia triticina (wheat); conditions: evaluated 8 days after inoculation; for Efficacy: dose 500 ppm of active ingredient
# [5] = dose 10 ppm of active ingredient
# [6] = dose 50 ppm of active ingredient
# [7] = dose 100 ppm of active ingredient
# [8] = dose 250 ppm of active ingredient
# [9] = Botrytis cinerea, 48 h, read-out: Efficacy
Compound,Efficacy (Cochliobolus miyabeanus; [8]),Efficacy [1],Efficacy (Pyrenophora teres),% Inhibition of fungal growth at 50 μM (Fusarium graminearum),Efficacy (Septoria tritici),Efficacy (Leptosphaeria nodorum),logP [2],% Inhibition of Aflatoxin at 50 μM (aflatoxines production),Efficacy (Alternaria solani),Efficacy (Uromyces appendiculatus),Efficacy [4],Efficacy (Botrytis cinerea),Efficacy (Sphaerotheca fuliginea),Efficacy (Venturia inaequalis),further results
"COC(c1ccc(Cl)cc1Cl)C(C)NC(=O)c1cn(C)nc1C(F)F (centres unmarked) [1.14 from WO-2008/148570, N-[1-(2,4-dichlorophenyl)-1-methoxypropan-2-yl]-3-(difluoromethyl)-1-methyl-1H-pyrazole-4-carboxamide, reference compound]",98%,–,–,–,–,–,–,–,–,–,–,–,–,–,Efficacy (Cochliobolus miyabeanus; [5]): 20%; Efficacy (Cochliobolus miyabeanus; [6]): 80%; Efficacy (Cochliobolus miyabeanus; [7]): 92%; Efficacy (protection) (Cochliobolus miyabeanus): less than 20%
CC(CN(C(=O)c1c(C(F)F)nn(C)c1F)C1CC1)c1ccccc1 (centres unmarked) [Example 13],–,100%,100%,100%,93%,100%,3.17,100%,95%,–,–,–,–,–,Efficacy [3]: 93%
CC(Cc1cccc(Cl)c1)NC(=O)c1c(C(F)F)nn(C)c1F (centres unmarked) [Example 50],90%,–,100%,100%,–,–,3.02,100%,100%,–,–,–,–,–,–
CC(Cc1ccc(Cl)cc1)N(C(=O)c1c(C(F)F)nn(C)c1F)C1CC1 (centres unmarked) [Example 55],–,100%,100%,100%,100%,95%,3.73,100%,95%,96%,100%,100%,100%,100%,–
Cn1nc(C(F)F)c(C(=O)NCCc2ccc(Cl)cc2Cl)c1F [Example 65],–,95%,100%,100%,100%,–,3.09,100%,90%,100%,–,–,79%,100%,–
Cn1nc(C(F)F)c(C(=O)NCCc2ccc(Cl)cc2Cl)c1Cl [Example 66],–,90%,–,100%,71%,–,3.31,100%,–,98%,100%,–,–,100%,–
"COC(c1ccc(Cl)cc1Cl)C(C)NC(=O)c1c(C(F)F)nn(C)c1F (centres unmarked) [Example 73, N-[1-(2,4-dichlorophenyl)-1-methoxypropan-2-yl]-3-(difluoromethyl)-5-fluoro-1-methyl-1H-pyrazole-4-carboxamide]",98%,100%,100%,–,100%,–,3.75,–,100%,–,88%,–,100%,100%,Efficacy (Cochliobolus miyabeanus; [5]): 65%; Efficacy (Cochliobolus miyabeanus; [6]): 92%; Efficacy (Cochliobolus miyabeanus; [7]): 97%; Efficacy (protection) (Cochliobolus miyabeanus): at least 65%; inhibition at 50 µM (Fusarium graminearum): 100%; chromatographic logP [2]: 3.65; inhibition at 50 µM (aflatoxines production): 100%; pest or weed control at 100 ppm (Botrytis cinerea; [9]): 99%
COC(CN(C(=O)c1c(C(F)F)nn(C)c1F)C1CC1)c1ccc(Cl)cc1Cl (centres unmarked) [Example 80],–,–,100%,100%,–,100%,–,100%,95%,80%,–,100%,100%,100%,Efficacy (Puccinia triticina): 80%
CC(Cc1cc(Cl)ccc1Cl)NC(=O)c1c(C(F)F)nn(C)c1F (centres unmarked) [Example 92],90%,–,100%,100%,–,–,3.37,100%,100%,–,–,–,88%,–,–
COC(CNC(=O)c1c(C(F)F)nn(C)c1Cl)c1cc(Cl)cc(Cl)c1 (centres unmarked) [Example 106],–,–,90%,69%,71%,–,3.55,89%,–,–,–,–,–,–,Efficacy [3]: 93%
CC(Cc1c(Cl)cccc1Cl)N(C(=O)c1c(C(F)F)nn(C)c1F)C1CC1 (centres unmarked) [Example 115],–,100%,100%,100%,–,95%,4.06,100%,100%,98%,100%,93%,100%,100%,Efficacy (Puccinia triticina): 90%
CC(Cc1c(F)cccc1Cl)N(C(=O)c1c(C(F)F)nn(C)c1F)C1CC1 (centres unmarked) [Example 120],–,94%,100%,100%,100%,100%,3.76,100%,100%,100%,100%,94%,100%,100%,Efficacy (Puccinia triticina): 70%
Cn1nc(C(F)F)c(C(=O)NC(C)(C)C(=O)c2ccc3ccccc3c2)c1F [Example 160],–,70%,100%,100%,70%,70%,2.92,100%,95%,–,83%,100%,95%,100%,–
Cn1nc(C(F)F)c(C(=O)NCCc2ncc(C(F)(F)F)cc2Cl)c1F [Example 187],85%,94%,100%,100%,100%,–,2.75,100%,100%,96%,–,100%,–,100%,–
"CC(Cc1ncc(C(F)(F)F)cc1Cl)N(C(=O)c1c(C(F)F)nn(C)c1F)C1CC1 (centres unmarked) [Example 188, N-{1-[3-chloro-5-(trifluoromethyl)pyridin-2-yl]propan-2-yl}-N-cyclopropyl-3-(difluoromethyl)-5-fluoro-1-methyl-1H-pyrazole-4-carboxamide]",80%,100%,100%,–,100%,100%,–,–,100%,98%,100%,–,100%,100%,"Efficacy (Puccinia triticina): 90%; Efficacy (protection) (Puccinia triticina; preventive, 500 ppm of active ingredient): greater than 90%; inhibition at 50 µM (Fusarium graminearum): 100%; chromatographic logP [2]: 3.8; inhibition at 50 µM (aflatoxines production): 100%; pest or weed control at 100 ppm (Botrytis cinerea; [9]): 98%; pest or weed control at 500 ppm (Botrytis cinerea; Botrytis cinerea, 48 h, 500 ppm of active ingredient, read-out: Efficacy): > 95%"
Cn1nc(C(F)F)c(C(=O)N(C2CC2)C2CCCC2c2ccccc2Cl)c1F (centres unmarked) [Example 210],–,100%,100%,100%,100%,90%,4.31,100%,100%,–,86%,100%,100%,100%,–
Cn1nc(C(F)F)c(C(=O)NC2CC2c2ccc(Cl)cc2)c1F (centres unmarked) [Example 224],–,–,100%,100%,–,80%,2.61,100%,95%,100%,–,–,84%,100%,–
